Measurements from ChEMBL document CHEMBL1144986, “Binding of beta-carbolines at 5-HT(2) serotonin receptors” (Bioorg Med Chem Lett, 2003).
Values belong to the molecule of their own block, whether it stands above or below them.

Columns and labels:
[1] = biological target: T1, 5-hydroxytryptamine receptor 2C (Rattus norvegicus, UniProt P08909); experiment: Binding affinity towards cloned rat 5-hydroxytryptamine 2C receptor from fundus tissue by [3H]mesulergine displacement.
T1 sequence (P08909 whole entry): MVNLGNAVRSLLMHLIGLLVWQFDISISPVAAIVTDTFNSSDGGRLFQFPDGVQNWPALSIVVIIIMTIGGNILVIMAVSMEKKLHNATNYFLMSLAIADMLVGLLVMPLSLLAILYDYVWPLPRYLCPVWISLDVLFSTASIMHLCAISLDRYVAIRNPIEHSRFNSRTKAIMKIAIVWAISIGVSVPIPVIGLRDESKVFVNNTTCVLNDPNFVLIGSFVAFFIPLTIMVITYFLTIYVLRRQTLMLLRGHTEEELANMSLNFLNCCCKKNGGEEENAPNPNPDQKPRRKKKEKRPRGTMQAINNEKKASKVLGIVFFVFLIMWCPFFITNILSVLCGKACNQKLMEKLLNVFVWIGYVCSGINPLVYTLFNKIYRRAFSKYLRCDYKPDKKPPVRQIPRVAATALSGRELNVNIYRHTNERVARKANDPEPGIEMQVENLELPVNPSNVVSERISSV

[2] = biological target: T2, 5-hydroxytryptamine receptor 2A (Rattus norvegicus, UniProt P14842); experiment: Binding affinity towards cloned rat 5-hydroxytryptamine 2A receptor by [3H]ketanserin displacement.
T2 sequence (P14842 whole entry): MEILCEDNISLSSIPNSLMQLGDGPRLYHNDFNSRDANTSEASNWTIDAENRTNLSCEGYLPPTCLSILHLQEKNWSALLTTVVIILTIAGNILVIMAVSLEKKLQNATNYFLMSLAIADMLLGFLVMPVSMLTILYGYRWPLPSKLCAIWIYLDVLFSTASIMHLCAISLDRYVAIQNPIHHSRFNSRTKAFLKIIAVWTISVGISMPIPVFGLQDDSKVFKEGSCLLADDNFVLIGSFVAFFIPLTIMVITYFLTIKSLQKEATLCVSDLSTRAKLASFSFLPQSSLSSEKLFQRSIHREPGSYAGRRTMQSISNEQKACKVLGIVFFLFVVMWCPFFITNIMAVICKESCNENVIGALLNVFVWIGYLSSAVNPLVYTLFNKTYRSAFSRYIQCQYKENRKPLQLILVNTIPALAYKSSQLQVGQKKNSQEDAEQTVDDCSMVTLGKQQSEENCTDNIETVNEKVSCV

[3] = biological target: T2, 5-hydroxytryptamine receptor 2A; experiment: Binding affinity for rat 5-hydroxytryptamine 2A receptor using [3H]DOB
[4] = biological target: T2, 5-hydroxytryptamine receptor 2A; experiment: Binding affinity towards cloned rat Inhibition of binding towards 5-hydroxytryptamine 2A receptor at 100 nM concentration was determined using [3H]DOB as radioligand
[5] = biological target: T2, 5-hydroxytryptamine receptor 2A; experiment: Binding affinity towards cloned rat Inhibition of binding towards 5-hydroxytryptamine 2A receptor at 100 nM concentration was determined using [3H]ketanserin as radioligand
[6] = biological target: 5-hydroxytryptamine receptor 5A (Homo sapiens, UniProt P47898); experiment: Binding affinity towards 5-HT5A receptor
5-hydroxytryptamine receptor 5A, sequence (P47898 whole entry): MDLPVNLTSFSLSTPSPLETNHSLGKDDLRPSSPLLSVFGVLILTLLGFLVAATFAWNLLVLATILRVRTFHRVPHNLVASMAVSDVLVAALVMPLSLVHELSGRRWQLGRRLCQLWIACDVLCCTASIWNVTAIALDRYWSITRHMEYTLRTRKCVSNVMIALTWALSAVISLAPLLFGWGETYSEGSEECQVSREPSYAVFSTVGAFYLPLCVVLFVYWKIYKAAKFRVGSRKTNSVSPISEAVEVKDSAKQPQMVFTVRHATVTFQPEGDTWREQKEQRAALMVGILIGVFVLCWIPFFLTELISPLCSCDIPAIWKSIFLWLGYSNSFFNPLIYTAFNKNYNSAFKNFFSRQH

[7] = biological target: 5-hydroxytryptamine receptor 1B (Homo sapiens, UniProt P28222); experiment: Binding affinity towards 5-hydroxytryptamine 1B receptor
5-hydroxytryptamine receptor 1B, sequence (P28222 whole entry): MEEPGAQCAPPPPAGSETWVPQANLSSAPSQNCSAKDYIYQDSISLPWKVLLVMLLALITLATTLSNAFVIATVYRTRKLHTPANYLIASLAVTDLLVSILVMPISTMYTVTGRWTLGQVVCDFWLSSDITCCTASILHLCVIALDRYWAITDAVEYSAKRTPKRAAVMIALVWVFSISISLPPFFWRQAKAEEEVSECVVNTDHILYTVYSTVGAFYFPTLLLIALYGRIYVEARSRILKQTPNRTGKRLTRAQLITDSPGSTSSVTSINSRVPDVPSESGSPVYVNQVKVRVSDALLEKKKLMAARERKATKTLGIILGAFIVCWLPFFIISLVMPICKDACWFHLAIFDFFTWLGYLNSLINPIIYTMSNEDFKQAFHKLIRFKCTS

[8] = biological target: 5-hydroxytryptamine receptor 1D (Homo sapiens, UniProt P28221); experiment: Binding affinity towards 5-hydroxytryptamine 1D receptor
5-hydroxytryptamine receptor 1D, sequence (P28221 whole entry): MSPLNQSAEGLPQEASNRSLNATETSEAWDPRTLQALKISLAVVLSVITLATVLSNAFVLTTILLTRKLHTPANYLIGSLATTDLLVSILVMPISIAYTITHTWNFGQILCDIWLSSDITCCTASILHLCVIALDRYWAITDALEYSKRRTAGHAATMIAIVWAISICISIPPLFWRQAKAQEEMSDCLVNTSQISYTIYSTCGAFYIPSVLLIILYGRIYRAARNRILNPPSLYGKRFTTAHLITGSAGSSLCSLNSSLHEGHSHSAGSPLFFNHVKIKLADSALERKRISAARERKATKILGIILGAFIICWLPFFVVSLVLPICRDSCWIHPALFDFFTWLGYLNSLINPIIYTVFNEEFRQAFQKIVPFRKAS

[9] = biological target: GABA-A receptor; anion channel; experiment: Binding affinity towards GABA-A benzodiazepine receptor; format: protein-complex assay, Rattus norvegicus
[10] = biological target: T3, 5-hydroxytryptamine receptor 2C (Homo sapiens, UniProt P28335); experiment: Binding affinity towards 5-hydroxytryptamine 2C receptor
T3 sequence (P28335 whole entry): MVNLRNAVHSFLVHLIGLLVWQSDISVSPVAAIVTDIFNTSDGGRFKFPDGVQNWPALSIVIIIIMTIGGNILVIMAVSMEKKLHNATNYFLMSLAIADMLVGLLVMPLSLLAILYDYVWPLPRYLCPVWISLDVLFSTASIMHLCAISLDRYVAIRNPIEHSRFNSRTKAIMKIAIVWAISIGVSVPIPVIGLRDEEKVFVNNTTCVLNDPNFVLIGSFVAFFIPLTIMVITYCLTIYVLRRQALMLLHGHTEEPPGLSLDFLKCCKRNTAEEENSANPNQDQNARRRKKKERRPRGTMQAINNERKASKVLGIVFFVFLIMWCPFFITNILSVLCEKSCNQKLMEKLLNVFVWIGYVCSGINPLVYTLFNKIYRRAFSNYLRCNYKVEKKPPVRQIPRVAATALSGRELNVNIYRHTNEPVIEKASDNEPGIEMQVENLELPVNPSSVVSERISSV

Dopamine receptor = experiment: Binding affinity towards Dopamine receptor; format: protein assay
[11] = biological target: Sodium-dependent dopamine transporter (Bos taurus, UniProt P27922); experiment: Binding affinity towards DAT (bovine)
Sodium-dependent dopamine transporter, sequence (P27922 whole entry): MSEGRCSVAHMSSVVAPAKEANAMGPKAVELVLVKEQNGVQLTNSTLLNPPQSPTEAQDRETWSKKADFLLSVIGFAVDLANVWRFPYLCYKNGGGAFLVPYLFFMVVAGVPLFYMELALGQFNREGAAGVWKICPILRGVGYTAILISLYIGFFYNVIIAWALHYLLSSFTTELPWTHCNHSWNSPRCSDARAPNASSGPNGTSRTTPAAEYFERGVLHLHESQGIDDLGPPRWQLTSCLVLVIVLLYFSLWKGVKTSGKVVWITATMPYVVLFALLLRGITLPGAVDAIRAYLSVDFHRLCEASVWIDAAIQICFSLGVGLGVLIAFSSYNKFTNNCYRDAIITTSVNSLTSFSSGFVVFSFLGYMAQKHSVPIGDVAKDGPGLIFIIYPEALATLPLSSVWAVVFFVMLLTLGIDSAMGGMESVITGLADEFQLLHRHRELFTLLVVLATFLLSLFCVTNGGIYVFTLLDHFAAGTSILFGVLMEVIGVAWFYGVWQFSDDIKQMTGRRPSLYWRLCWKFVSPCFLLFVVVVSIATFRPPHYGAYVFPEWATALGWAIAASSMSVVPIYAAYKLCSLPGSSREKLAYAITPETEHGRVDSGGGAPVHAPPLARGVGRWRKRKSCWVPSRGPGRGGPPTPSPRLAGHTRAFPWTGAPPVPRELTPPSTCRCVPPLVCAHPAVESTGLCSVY

[12] = biological target: 5-hydroxytryptamine receptor 6 (Homo sapiens, UniProt P50406); experiment: Binding affinity towards human 5-hydroxytryptamine 6 receptor
5-hydroxytryptamine receptor 6, sequence (P50406 whole entry): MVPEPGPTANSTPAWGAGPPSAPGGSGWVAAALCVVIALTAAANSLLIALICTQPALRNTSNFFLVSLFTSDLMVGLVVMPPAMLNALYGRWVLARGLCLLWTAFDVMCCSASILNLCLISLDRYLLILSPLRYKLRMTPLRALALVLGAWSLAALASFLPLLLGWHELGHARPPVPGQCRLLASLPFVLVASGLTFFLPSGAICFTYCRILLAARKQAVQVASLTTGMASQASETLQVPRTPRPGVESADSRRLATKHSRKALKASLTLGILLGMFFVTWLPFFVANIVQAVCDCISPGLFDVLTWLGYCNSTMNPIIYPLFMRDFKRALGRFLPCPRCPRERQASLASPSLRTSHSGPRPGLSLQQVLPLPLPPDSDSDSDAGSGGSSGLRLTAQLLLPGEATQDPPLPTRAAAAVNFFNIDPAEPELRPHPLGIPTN

[13] = biological target: Sodium-dependent serotonin transporter (Homo sapiens, UniProt P31645); experiment: Binding affinity towards Serotonin transporter
Sodium-dependent serotonin transporter, sequence (P31645 whole entry): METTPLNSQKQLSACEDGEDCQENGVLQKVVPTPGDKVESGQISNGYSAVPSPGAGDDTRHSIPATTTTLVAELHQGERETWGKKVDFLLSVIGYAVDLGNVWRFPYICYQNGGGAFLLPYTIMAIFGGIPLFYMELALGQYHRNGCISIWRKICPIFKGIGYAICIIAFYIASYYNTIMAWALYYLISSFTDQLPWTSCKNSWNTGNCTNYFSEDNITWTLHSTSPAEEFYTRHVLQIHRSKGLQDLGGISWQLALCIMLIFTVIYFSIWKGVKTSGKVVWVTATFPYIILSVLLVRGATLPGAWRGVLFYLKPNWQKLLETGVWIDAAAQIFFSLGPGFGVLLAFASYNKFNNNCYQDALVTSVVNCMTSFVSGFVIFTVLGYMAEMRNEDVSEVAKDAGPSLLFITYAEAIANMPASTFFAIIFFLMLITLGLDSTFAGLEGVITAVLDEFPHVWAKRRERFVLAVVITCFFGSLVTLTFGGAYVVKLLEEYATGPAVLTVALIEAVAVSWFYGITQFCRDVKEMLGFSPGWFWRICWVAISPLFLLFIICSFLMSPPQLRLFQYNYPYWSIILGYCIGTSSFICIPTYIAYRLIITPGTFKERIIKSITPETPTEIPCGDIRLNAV

[14] = biological target: 5-hydroxytryptamine receptor 7 (Homo sapiens, UniProt P34969); experiment: Binding affinity towards 5-hydroxytryptamine 7 receptor
5-hydroxytryptamine receptor 7, sequence (P34969 whole entry): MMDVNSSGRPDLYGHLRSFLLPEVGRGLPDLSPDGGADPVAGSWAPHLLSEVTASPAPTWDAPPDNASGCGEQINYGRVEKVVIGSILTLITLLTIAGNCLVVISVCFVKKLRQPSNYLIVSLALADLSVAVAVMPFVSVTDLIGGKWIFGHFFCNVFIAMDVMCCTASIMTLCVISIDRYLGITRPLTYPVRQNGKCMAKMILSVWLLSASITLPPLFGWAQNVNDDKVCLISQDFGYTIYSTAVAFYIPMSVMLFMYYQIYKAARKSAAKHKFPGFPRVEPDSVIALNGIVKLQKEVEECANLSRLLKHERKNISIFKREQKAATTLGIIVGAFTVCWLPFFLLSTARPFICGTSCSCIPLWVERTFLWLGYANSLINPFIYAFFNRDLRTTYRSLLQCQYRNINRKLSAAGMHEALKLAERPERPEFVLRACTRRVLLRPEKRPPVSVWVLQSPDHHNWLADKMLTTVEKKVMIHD

[15] = biological target: Muscarinic acetylcholine receptor; experiment: Binding affinity towards Muscarinic acetylcholine receptor; format: protein assay
[16] = biological target: Serotonin 3 (5-HT3) receptor; experiment: Binding affinity towards 5-HT3 receptor; format: protein-complex assay
[17] = biological target: T2, 5-hydroxytryptamine receptor 2A; experiment: Binding affinity towards 5-hydroxytryptamine 2A receptor
[18] = biological target: Sodium-dependent noradrenaline transporter (Homo sapiens, UniProt P23975); experiment: Binding affinity towards NET
Sodium-dependent noradrenaline transporter, sequence (P23975 whole entry): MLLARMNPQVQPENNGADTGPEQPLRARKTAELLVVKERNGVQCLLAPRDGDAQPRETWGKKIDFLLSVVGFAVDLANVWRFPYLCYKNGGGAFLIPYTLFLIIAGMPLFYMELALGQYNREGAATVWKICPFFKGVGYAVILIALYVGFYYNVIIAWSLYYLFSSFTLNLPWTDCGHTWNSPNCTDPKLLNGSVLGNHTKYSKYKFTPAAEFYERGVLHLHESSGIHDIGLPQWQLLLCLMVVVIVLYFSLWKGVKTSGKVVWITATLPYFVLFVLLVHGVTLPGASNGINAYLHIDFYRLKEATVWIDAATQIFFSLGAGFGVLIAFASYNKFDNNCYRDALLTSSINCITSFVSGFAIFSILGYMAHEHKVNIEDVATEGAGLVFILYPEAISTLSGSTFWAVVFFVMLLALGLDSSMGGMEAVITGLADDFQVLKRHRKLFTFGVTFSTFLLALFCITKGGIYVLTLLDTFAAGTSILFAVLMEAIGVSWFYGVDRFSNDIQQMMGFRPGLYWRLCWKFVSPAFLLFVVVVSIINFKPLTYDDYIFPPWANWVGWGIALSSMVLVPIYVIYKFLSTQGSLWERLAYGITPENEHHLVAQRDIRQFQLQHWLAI

[19] = biological target: T4, 5-hydroxytryptamine receptor 1A (Homo sapiens, UniProt P08908); experiment: Binding affinity towards 5-hydroxytryptamine 1A receptor
T4 sequence (P08908 whole entry): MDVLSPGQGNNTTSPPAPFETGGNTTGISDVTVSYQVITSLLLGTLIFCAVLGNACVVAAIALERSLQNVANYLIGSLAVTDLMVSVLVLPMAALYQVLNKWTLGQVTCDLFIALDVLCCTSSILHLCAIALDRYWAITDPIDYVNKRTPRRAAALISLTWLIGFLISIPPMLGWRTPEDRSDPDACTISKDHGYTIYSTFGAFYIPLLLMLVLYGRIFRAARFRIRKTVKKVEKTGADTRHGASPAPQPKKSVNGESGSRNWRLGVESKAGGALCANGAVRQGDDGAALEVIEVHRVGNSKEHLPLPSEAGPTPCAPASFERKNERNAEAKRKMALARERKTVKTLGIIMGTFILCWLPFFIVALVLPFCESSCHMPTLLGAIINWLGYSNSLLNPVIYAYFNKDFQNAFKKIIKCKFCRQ

[20] = biological target: T2, 5-hydroxytryptamine receptor 2A; experiment: Binding affinity towards cloned rat 5-hydroxytryptamine 2A receptor from fundus tissue was determined using [3H]mesulergine as radioligand
[21] = biological target: Beta-1 adrenergic receptor (Homo sapiens, UniProt P08588); experiment: Binding affinity towards Beta-1A adrenergic receptor
[22] = biological target: Beta-2 adrenergic receptor (Homo sapiens, UniProt P07550); experiment: Binding affinity towards Beta-2A adrenergic receptor
[23] = biological target: Alpha-2B adrenergic receptor (Homo sapiens, UniProt P18089); experiment: Binding affinity towards Alpha-2B adrenergic receptor
Alpha-2B adrenergic receptor, sequence (P18089 whole entry): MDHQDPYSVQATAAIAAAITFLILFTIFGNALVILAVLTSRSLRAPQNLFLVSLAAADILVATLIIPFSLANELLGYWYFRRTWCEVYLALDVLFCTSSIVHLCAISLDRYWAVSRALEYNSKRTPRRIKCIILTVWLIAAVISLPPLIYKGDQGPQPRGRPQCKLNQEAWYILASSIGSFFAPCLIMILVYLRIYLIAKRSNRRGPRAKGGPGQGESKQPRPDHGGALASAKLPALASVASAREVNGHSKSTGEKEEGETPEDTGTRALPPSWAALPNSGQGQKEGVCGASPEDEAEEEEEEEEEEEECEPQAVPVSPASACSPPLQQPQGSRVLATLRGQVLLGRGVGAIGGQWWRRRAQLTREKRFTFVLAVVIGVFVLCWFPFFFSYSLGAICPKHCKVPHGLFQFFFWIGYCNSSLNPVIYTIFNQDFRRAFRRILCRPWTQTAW

[24] = biological target: Muscarinic acetylcholine receptor; experiment: Binding affinity towards Muscarinic receptor; format: protein assay
[25] = biological target: Alpha-1A adrenergic receptor (Homo sapiens, UniProt P35348); experiment: Binding affinity towards Alpha-1A adrenergic receptor
[26] = biological target: Alpha-1B adrenergic receptor (Homo sapiens, UniProt P35368); experiment: Binding affinity towards Alpha-1B adrenergic receptor
[27] = biological target: Alpha-2C adrenergic receptor (Homo sapiens, UniProt P18825); experiment: Binding affinity towards Alpha-2C adrenergic receptor
[28] = biological target: Alpha-2A adrenergic receptor (Homo sapiens, UniProt P08913); experiment: Binding affinity towards alpha-2A-Adrenergic receptor

Structure (SMILES): COc1ccc2[nH]c3c(c2c1)CCNC3
Ki [1]: 2190 nM
Ki [2]: 4780 nM
Ki [3]: 1400 nM

Structure (SMILES): C1=NCCc2c1[nH]c1ccccc21
Ki [1]: 1100 nM
Ki [4]: 2150 nM
Ki [5]: 2560 nM

Structure (SMILES): Brc1cccc2[nH]c3c(c12)CCN=C3
Ki [1]: 140 nM
Ki [2]: 390 nM

Structure (SMILES): COc1cccc2c3c([nH]c12)C=NCC3
Ki [1]: 1350 nM
Ki [2]: 3240 nM
Ki [3]: 2550 nM

Structure (SMILES): COc1cccc2c3c([nH]c12)CNCC3
Ki [1]: 1270 nM
Ki [2]: 640 nM
Ki [3]: 400 nM

Structure (SMILES): CC1=NCCc2c1[nH]c1ccccc21
Ki [6]: 845 nM
Ki [7]: > 10000 nM
Ki [8]: > 10000 nM
Ki [9]: > 10000 nM
Ki [10]: 1860 nM
Ki (Dopamine receptor): > 10000 nM
Ki [11]: > 10000 nM
Ki [12]: 1450 nM
Ki [13]: > 10000 nM
Ki [14]: 280 nM
Ki [15]: > 10000 nM
Ki [16]: > 10000 nM
Ki [17]: 1150 nM
Ki [18]: > 10000 nM
Ki [19]: > 1670 nM

Structure (SMILES): COc1ccc2[nH]c3c(c2c1)CCN=C3C
Ki [6]: > 10000 nM
Ki [7]: > 10000 nM
Ki [8]: > 10000 nM
Ki [9]: > 10000 nM
Ki [10]: 924 nM
Ki (Dopamine receptor): > 10000 nM
Ki [11]: > 10000 nM
Ki [12]: 1930 nM
Ki [13]: > 10000 nM
Ki [14]: 2960 nM
Ki [15]: > 10000 nM
Ki [16]: > 10000 nM
Ki [17]: 5600 nM
Ki [18]: > 4100 nM
Ki [19]: > 10000 nM

Structure (SMILES): CC(C)Oc1cccc2[nH]c3c(c12)CCN=C3
Ki [20]: 1410 nM

Structure (SMILES): CC1=NCCc2c1[nH]c1cccc(OC(C)C)c21
Ki [1]: 26 nM
Ki [2]: 470 nM

Ki [1]: 200 nM
Ki [2]: 124 nM
Structure (SMILES): C1=NCCc2c1[nH]c1cccc(OCc3ccccc3)c21

Structure (SMILES): Brc1ccc2c3c([nH]c2c1)C=NCC3
Ki [1]: 2100 nM
Ki [2]: 1330 nM

Structure (SMILES): Brc1ccc2c3c([nH]c2c1)CNCC3
Ki [1]: 250 nM
Ki [2]: 240 nM

Structure (SMILES): COc1ccc2c3c([nH]c2c1)CNCC3
Ki [6]: > 10000 nM
Ki [7]: > 10000 nM
Ki [8]: > 10000 nM
Ki [1]: > 10000 nM
Ki [21]: > 10000 nM
Ki [10]: > 10000 nM
Ki [22]: > 10000 nM
Ki [23]: 140 nM
Ki [24]: > 10000 nM
Ki [25]: > 10000 nM
Ki [26]: > 10000 nM
Ki [12]: > 10000 nM
Ki [2]: 4620 nM
Ki [3]: 2200 nM
Ki [13]: > 10000 nM
Ki [14]: 1400 nM
Ki [27]: 1740 nM
Ki [16]: > 10000 nM
Ki [17]: 4620 nM
Ki [28]: 1370 nM
Ki [19]: > 10000 nM

Structure (SMILES): Brc1cccc2[nH]c3c(c12)CCNC3
Ki [1]: 130 nM
Ki [2]: 180 nM
Ki [3]: 80 nM

Structure (SMILES): Brc1ccc2[nH]c3c(c2c1)CCNC3
Ki [1]: 210 nM
Ki [2]: 500 nM

Structure (SMILES): COc1cccc2[nH]c3c(c12)CCNC3
Ki [1]: 140 nM
Ki [2]: 130 nM
Ki [3]: 75 nM

Structure (SMILES): COc1cccc2[nH]c3c(c12)CCN=C3
Ki [1]: 75 nM
Ki [2]: 470 nM
Ki [3]: 500 nM

Structure (SMILES): Brc1ccc2[nH]c3c(c2c1)CCN=C3
Ki [1]: 1200 nM
Ki [2]: 1720 nM

Structure (SMILES): COc1ccc2[nH]c3c(c2c1)CCN=C3
Ki [1]: 1170 nM
Ki [2]: 2370 nM

Structure (SMILES): Brc1cccc2c3c([nH]c12)C=NCC3
Ki [1]: 140 nM
Ki [2]: 110 nM
Ki [3]: 115 nM

Structure (SMILES): Brc1cccc2c3c([nH]c12)CNCC3
Ki [1]: 48 nM
Ki [2]: 22 nM
Ki [3]: 21 nM

Structure (SMILES): COc1ccc2c3c([nH]c2c1)C=NCC3 [CGS-19281A]
Ki [1]: > 10000 nM
Ki [2]: > 10000 nM
Ki [3]: > 10000 nM

Structure (SMILES): COc1ccc2c(c1)[nH]c1c(C)nccc12 [HARMINE]
Ki [6]: > 10000 nM
Ki [7]: > 10000 nM
Ki [8]: > 10000 nM
Ki [21]: > 10000 nM
Ki [9]: > 10000 nM
Ki [10]: 9340 nM
Ki [22]: > 10000 nM
Ki [23]: 1130 nM
Ki [25]: > 10000 nM
Ki (Dopamine receptor): > 10000 nM
Ki [11]: > 10000 nM
Ki [26]: > 10000 nM
Ki [12]: 1480 nM
Ki [13]: > 10000 nM
Ki [14]: 5500 nM
Ki [27]: 810 nM
Ki [15]: > 10000 nM
Ki [16]: > 10000 nM
Ki [17]: 7790 nM
Ki [28]: 2540 nM
Ki [18]: 3260 nM
Ki [19]: > 10000 nM

Structure (SMILES): c1ccc2c3c([nH]c2c1)CNCC3 [TRYPTOLINE]
Ki [1]: > 10000 nM
Ki [2]: 3800 nM
Ki [3]: 3000 nM
